What was measured:
[1] = biological target: human CYP4F2 (Homo sapiens (Human), UniProt P78329); test: Inhibition test against 20-HETE producing enzyme CYP4F2 (luciferine derivative, luminescence); format: biochemical
Method in brief: (§1)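 IC50 derived from luminescence after 60 min at room temperature with membrane fractions of E. coli expressing each human CYP (100 μg/mL protein). For CYP4A11, 60 μM luciferin derivative in 100 mM Tris-HCl pH 7.5 with NADPH-regenerating system; for CYP4F2, 2.5 μM substrate, 1 mM NADPH, 50 mM KPO4 pH 7.4.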

[2] = biological target: 20-HETE producing enzymes, human kidney microsome; test: Inhibition test against 20-HETE producing enzymes using human kidney microsomes (LC-MS/MS); format: biochemical; settings: for IC50: human kidney microsome 250 μg/mL protein, 20 μM arachidonic acid, 37° C. 45 minutes, LC-MS/MS
Method: (1) Inhibition Test for Each Compound of the Present Invention Against 20-HETE Producing Enzymes Using Human Kidney Microsomes
The reaction solution containing each compound [final concentration of 100 mM, KPO4 (pH 7.4), 20 μM Arachidonic acid, 4 mM NADPH] was added to the human kidney microsome (250 μg/mL protein). Following this, the microsome was left to stand at 37° C. for 45 minutes to perform 20-HETE producing reaction. After adding formic acid to stop the reaction, 9 times amount of acetonitrile was added, and deproteinization was carried out by centrifugation (1000 rpm, 4° C., 10 minutes). After that, the peak area value of 20-HETE was measured using a liquid chromatograph-tandem mass spectrometer (LC-MS/MS), and by using that value, the percent inhibition of 20-HETE producing enzyme (%) was calculated according to the equation described below, and the 50% inhibitory concentration (IC50 value) for each compound was calculated. Percent inhibition of 20-HETE producing enzyme (%)=[1−(A−B)/(C−B)]*100
A: Peak area value of 20-HETE/peak area value of internal standard substance with addition of compound
B: Peak area value of 20-HETE/peak area value of internal standard substance without addition of compound and NADPH
C: Peak area value of 20-HETE/peak area value of internal standard substance without addition of compound
(3) Inhibition Test for Compound a and Compound B Disclosed in WO03/022821 Against 20-HETE Producing Enzymes Using Human Kidney Microsomes
For compound A and compound B disclosed in WO03/022821, which have been described above, the 50% inhibitory concentration (IC50 value) against 20-HETE producing enzymes was calculated according to the method described in Test Example 2.
On the other hand, as described above, in Test Example 2, nonradioactive arachidonic acid was used as a substrate for 20-HETE producing reaction, and the amount of 20-HETE produced was measured using LC-MS/MS. In this case, the concentration of arachidonic acid, the substrate, is 20 μM.
In recent years, it is recommended that the substrate concentration for calculating the IC50 value be set at the Km value (Assay Guidance Manual, Sittampalam et. al. (URL: http://www.ncbi.nlm.nih.gov/books/NBK53196/)). According to this, in Test Example 2 described above, human kidney microsomes were used to calculate the Km value, and the calculated Km value of 20 μM was set as the concentration of the substrate, arachidonic acid.

[3] = biological target: human CYP4F22 (Homo sapiens (Human), UniProt Q6NT55); test: CYP4F22 selectivity test; format: biochemical; settings: cell membrane fraction expressing human CYP4F22, 14 μM luciferine derivative, 50 minutes
human CYP4F22, sequence (Q6NT55 whole entry): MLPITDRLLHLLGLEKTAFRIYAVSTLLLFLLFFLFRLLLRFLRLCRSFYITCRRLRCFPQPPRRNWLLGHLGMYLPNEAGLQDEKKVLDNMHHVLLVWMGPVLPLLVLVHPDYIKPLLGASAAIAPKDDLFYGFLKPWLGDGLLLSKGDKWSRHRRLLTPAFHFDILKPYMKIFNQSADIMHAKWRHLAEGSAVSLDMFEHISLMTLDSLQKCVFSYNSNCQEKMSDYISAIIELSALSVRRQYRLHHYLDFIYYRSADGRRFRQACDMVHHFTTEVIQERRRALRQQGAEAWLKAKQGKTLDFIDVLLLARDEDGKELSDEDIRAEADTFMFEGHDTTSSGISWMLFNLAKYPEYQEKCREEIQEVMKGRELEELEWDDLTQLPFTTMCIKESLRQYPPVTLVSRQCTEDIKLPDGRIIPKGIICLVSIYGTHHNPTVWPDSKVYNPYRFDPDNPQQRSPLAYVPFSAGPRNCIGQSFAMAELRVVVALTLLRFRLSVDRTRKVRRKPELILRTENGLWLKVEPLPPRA
Method: (1) CYP4F22 Selectivity Test for Each Compound of the Present Invention
(§2) The reaction solution containing each compound [final concentration of 100 mM KPO4 (pH 7.4), 14 μM luciferine derivative, and 1 mM NADPH] was added to a cell membrane fraction (30 μg/mL protein) in which human CYP4F22 had been expressed. Following this, the cell membrane fraction was left to stand at room temperature for 50 minutes to perform an enzymatic reaction. After the reaction, a luciferine detection reagent was added, and the luminescence value was measured using a plate reader. By using that value, the percent inhibition of the enzymatic reaction of CYP4F22(%) was calculated according to the equation described below, and the 50% inhibitory concentration (IC50 value) for each compound was calculated. Percent inhibition of CYP4F22 enzyme (%)=[1−(A−B)/(C−B)]*100
(§3) A: Luminescence value with addition of compound
(§4) B: Luminescence value without addition of compound and enzyme
(§5) C: Luminescence value without addition of compound

[4] = biological target: human CYP4A11 (Homo sapiens (Human), UniProt Q02928); test: Inhibition test against 20-HETE producing enzyme CYP4A11 (luciferine derivative, luminescence); format: biochemical
human CYP4A11, sequence (Q02928 5-519): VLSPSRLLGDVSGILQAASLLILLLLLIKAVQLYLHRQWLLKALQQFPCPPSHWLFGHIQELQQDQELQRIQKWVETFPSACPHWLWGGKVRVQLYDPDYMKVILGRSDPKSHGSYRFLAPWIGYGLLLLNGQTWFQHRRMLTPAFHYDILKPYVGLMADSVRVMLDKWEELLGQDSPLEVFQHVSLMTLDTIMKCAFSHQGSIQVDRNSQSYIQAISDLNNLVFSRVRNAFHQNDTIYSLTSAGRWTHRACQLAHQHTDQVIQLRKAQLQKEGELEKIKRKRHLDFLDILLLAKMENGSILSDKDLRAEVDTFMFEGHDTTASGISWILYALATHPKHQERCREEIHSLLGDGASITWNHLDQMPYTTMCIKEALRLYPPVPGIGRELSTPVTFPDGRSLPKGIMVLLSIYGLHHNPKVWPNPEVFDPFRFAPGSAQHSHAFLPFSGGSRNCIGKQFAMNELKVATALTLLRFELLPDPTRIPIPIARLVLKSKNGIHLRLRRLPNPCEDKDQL
Method in brief: as §1

[5] = biological target: human CYP4V2 (Homo sapiens (Human), UniProt Q6ZWL3); test: CYP4V2 selectivity test; format: biochemical; settings: cell membrane fraction expressing human CYP4V2, 7 μM luciferine derivative, 40 minutes
human CYP4V2, sequence (Q6ZWL3 whole entry): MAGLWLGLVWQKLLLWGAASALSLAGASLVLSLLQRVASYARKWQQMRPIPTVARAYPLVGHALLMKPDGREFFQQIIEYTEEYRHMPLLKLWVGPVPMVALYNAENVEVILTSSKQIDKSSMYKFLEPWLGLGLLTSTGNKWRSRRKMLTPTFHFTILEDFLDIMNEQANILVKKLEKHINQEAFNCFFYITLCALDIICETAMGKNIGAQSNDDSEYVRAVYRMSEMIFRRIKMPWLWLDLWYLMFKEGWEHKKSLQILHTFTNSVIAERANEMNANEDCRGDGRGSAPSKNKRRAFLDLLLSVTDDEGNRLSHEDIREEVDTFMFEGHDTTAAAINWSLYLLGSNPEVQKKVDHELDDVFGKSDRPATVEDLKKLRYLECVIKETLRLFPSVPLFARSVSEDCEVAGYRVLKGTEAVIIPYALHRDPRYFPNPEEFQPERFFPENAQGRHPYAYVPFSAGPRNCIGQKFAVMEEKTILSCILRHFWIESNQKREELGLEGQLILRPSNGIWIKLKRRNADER
Method: (3) CYP4V2 Selectivity Test for Each Compound of the Present Invention
as §2, with “7.4), 7” for “7.4), 14”, “fraction (38” for “fraction (30”, “human CYP4V2” for “human CYP4F22”, “for 40” for “for 50”, “of CYP4V2(%)” for “of CYP4F22(%)”, “of CYP4V2” for “of CYP4F22”
as §3, §4, §5

[6] = Evaluation test for in vivo stability (half-life in plasma after intravenous administration to rats); parameters: species or system rats (Sprague-Dawley); settings: rats (SD, male), 0.5 mg/kg, half-life in plasma from CL and Vdss
Method: (1) Evaluation Test for In Vivo Stability of Each Compound of the Present Invention
Each compound was dissolved in an aqueous solution of 10% HP-β-CD (0.5 mg/mL), and intravenously administered to rats (Sprague-Dawley (SD), male, 7-week-old, fasted, dose: 0.5 mg/kg). Blood was collected from the tail vein at each time of blood collection, and the plasma was collected by centrifugation. Quantitative analysis of each compound in plasma was performed using LC-MS/MS. Half-life in plasma (t1/2eff) was calculated from clearance (CL) and distribution volume (Vdss) calculated through noncompartmental analysis with Phoenix WinNonlin (Certara, L.P.), according to the equation described below. t1/2eff=LN(2)/(CL/Vdss)

[7] = human CYP4F2, luciferine derivative, luminescence
[8] = human CYP4A11, luciferine derivative, luminescence

human CYP4F2, sequence (P78329 5-520): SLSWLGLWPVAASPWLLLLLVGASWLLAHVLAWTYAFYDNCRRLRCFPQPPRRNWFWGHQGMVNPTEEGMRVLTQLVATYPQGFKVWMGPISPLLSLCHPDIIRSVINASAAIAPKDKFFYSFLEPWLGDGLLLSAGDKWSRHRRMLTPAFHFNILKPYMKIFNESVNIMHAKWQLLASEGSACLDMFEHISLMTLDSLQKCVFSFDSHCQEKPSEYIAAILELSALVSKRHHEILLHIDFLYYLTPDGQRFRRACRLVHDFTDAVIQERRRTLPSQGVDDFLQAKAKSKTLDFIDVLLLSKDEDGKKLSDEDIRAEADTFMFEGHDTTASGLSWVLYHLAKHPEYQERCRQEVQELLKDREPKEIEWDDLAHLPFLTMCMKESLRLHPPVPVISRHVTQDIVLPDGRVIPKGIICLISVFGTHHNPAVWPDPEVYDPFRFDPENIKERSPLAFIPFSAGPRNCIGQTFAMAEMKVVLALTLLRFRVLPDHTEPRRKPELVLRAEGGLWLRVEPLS

| Compound | IC50 [1, 7] [nM] | IC50 [2] [nM] | IC50 [3] [nM] | IC50 [4, 8] [nM] | IC50 [5] [nM] | t1/2eff [6] [h] | IC50 ([1]; E. coli membrane fraction expressing human CYP4F2, 2.5 μM luciferine derivative, room temperature 60 minutes) [nM] | inhibitory activities against 20-HETE producing enzymes compared to compound A and compound B ([2]; comparison with compound A and compound B of WO03/022821, human kidney microsomes) | IC50 ([4]; E. coli membrane fraction expressing human CYP4A11, 60 μM luciferine derivative, room temperature 60 minutes) [nM] |
| --- | --- | --- | --- | --- | --- | --- | --- | --- | --- |
| O=C(O)C1CC1c1cccc(COc2ccc(-c3ccn[nH]3)nc2)c1F (single isomer, unassigned) [Example 71-46] | 240 | 12 | 1300 | 19 | 620 | 3.6 | – | – | – |
| CC(C)(OCCCCCCCOc1ccc(-c2ccn[nH]2)nc1)C(=O)O [Example 15-1, 2-Methyl-2-[7-[[6-(1H-pyrazol-5-yl)-3-pyridinyl]oxy]heptoxy]propanoic Acid] | – | 18 | 2900 | – | 1000 | 2.4 | 220 | stronger inhibitory activities | 120 |
| O=C(O)C1(OCCCCCCCOc2ccc(-c3ccn[nH]3)nc2)CCC1 [Example 72-2] | 97 | 4.7 | 2500 | 120 | 510 | 2.4 | – | – | – |
| O=C(O)C1(CCCCCCCCOc2ccc(-c3ccn[nH]3)nc2)COC1 [Example 72-3] | 43 | 4 | 3800 | 130 | 1500 | 1.4 | – | – | – |
| O=C(O)[C@H]1C[C@@H]1c1cccc(CCOc2ccc(-c3ccn[nH]3)nc2)c1F [Example 74-4] | 58 | 4.4 | 480 | 82 | 2300 | 3.5 | – | – | – |
